These results are taken from BindingDB's records for doi:10.1021/acs.jmedchem.9b02038 (China Pharmaceutical University, 2020).

Each structure is given as a SMILES string. pIC50: −log10 of the molar value.

A short description of assay [1]: Inhibition of Vps34 in human MCF7-LC3 cells assessed as starvation-induced autophagy.
Assay [2] can be described thus: Inhibition of Vps34 in human MCF7-LC3 cells assessed as rapamycin-induced autophagy.

For `Cc1cc(Nc2cc(Cl)nc(Oc3ccc([N+](=O)[O-])cc3)n2)n[nH]1`, the pIC50 was 7.05 in assay [1] and 7.40 in assay [2].
